≈ marks a conversion by molar mass, not a printed value.
What was measured:
[1] = system: Human Retinal Microvascular Endothelial (hRMVE) Cells (hRMVEC); experiment: Growth inhibition of hRMVE cells under VEGF stimulation (MTT assay); format: cell-based; details: recombinant human VEGF, 48 hours, read-out: Cell Growth Inhibition Activity
[2] = Solubility test in 0.1% phosphate buffer solution (pH 7.0); format: physicochemical; details: aqueous buffer, thermodynamic from solid; 0.1% phosphate buffer solution (pH 7.0), room temperature overnight
Method: The mixture was subjected to ultrasonic irradiation for 30 seconds, and then shaken at room temperature overnight. The resulting suspension was left at rest at room temperature for 30 minutes, then filtered through a chromatography disc (0.20 μm) to prepare a sample solution. The sample solution and the standard solution were analyzed by LC-MS (product name: ACQUITY UPLC H-CLASS SYSTEM and Xevo TQ-S, produced by Nihon Waters K.K.), and a solubility was calculated from the obtained peak area value by an external standard method.

Row | Structure (SMILES) | IC50 [1] [nM] | solubility [2] [µg/mL]
1 | CNC(=O)c1ccccc1Sc1ccc2c(C#Cc3cccc(NC(=O)NCCOCCOCCOC)c3)n[nH]c2c1 [Compound 3, 2-[(3-{[3-(3-{2-[2-(2-methoxyethoxy)ethoxy]ethyl}ureido)phenyl]ethynyl}-1H-indazol-6-yl)thio]-N-methylbenzamide] | 11 | 
2 | CNC(=O)c1ccccc1Sc1ccc2c(C#Cc3cccc(NC(=O)NCCOCCOCCOCCOC)c3)n[nH]c2c1 [Compound 4] |  | 0.31 (≈ 0.491 µM)
3 | CNC(=O)c1ccccc1Sc1ccc2c(C#Cc3cccc(NC(=O)NCCOCCOCCOCCOCCOC)c3)n[nH]c2c1 [Compound 5, 2-{[3-({3-[3-(2,5,8,11,14-pentaoxahexadecane-16-yl)ureido]phenyl}ethynyl)-1H-indazol-6-yl]thio}-N-methylbenzamide] |  | 0.99 (≈ 1.46 µM)
4 | CNC(=O)c1ccccc1Sc1ccc2c(C#Cc3ccc(NC(=O)NCCOCCOCCOCCOC)cc3)n[nH]c2c1 [Compound 9, 2-{[3-({4-[3-(2,5,8,11-tetraoxatridecane-13-yl)ureido]phenyl}ethynyl)-1H-indazol-6-yl]thio}-N-methylbenzamide] |  | 1.2 (≈ 1.9 µM)
5 | CNC(=O)c1ccccc1Sc1ccc2c(C#Cc3ccc(NC(=O)NCCOCCOCCOCCOCCOC)cc3)n[nH]c2c1 [Compound 10, 2-{[3-({4-[3-(2,5,8,11,14-pentaoxahexadecane-16-yl)ureido]phenyl}ethynyl)-1H-indazol-6-yl]thio}-N-methylbenzamide] |  | 2.5 (≈ 3.7 µM)
6 | CNC(=O)c1ccccc1Sc1ccc2c(C#Cc3cccc(NC(=O)OCCOCCOCCOC)c3)n[nH]c2c1 [Compound 13, 2-[2-(2-methoxyethoxy)ethoxy]ethyl {3-[(6-{[2-(methylcarbamoyl)phenyl]thio}-1H-indazol-3-yl)ethynyl]phenyl}carbamate] | 9.3 | 
7 | CNC(=O)c1ccccc1Sc1ccc2c(C#Cc3ccc(NC(=O)OCCOCCOCCOC)cc3)n[nH]c2c1 [Compound 16, 2-[2-(2-methoxyethoxy)ethoxy]ethyl {4-[(6-{[2-(methylcarbamoyl)phenyl]thio}-1H-indazol-3-yl)ethynyl]phenyl}carbamate] | 1.2 | 0.27 (≈ 0.459 µM)
8 | CNC(=O)c1ccccc1Sc1ccc2c(C#Cc3ccc(NC(=O)OCCOCCOCCOCCOC)cc3)n[nH]c2c1 [Compound 17, 2,5,8,11-tetraoxatridecane-13-yl {4-[(6-{[2-(methylcarbamoyl)phenyl]thio}-1H-indazol-3-yl)ethynyl]phenyl}carbamate] |  | 0.38 (≈ 0.601 µM)
9 | CNC(=O)c1ccccc1Sc1ccc2c(C#Cc3ccc(NC(=O)OCCOCCOCCOCCOCCOC)cc3)n[nH]c2c1 [Compound 18, 2,5,8,11,14-pentaoxahexadecane-16-yl {4-[(6-{[2-(methylcarbamoyl)phenyl]thio}-1H-indazol-3-yl)ethynyl]phenyl}carbamate] |  | 0.86 (≈ 1.27 µM)
10 | CNC(=O)c1ccccc1Sc1ccc2c(C#Cc3ccc(NC(=O)COCCOCCOCCOC)cc3)n[nH]c2c1 [Compound 20, N-{4-[(6-{[2-(methylcarbamoyl)phenyl]thio}-1H-indazol-3-yl)ethynyl]phenyl}-2,5,8,11-tetraoxatridecane-13-amide] | 1.7 | 
11 | CNC(=O)c1ccccc1Sc1ccc2c(C#Cc3ccc(NC(=O)COCCOCCOCCOCCOCCOC)cc3)n[nH]c2c1 [Compound 22, N-{4-[(6-{[2-(methylcarbamoyl)phenyl]thio}-1H-indazol-3-yl)ethynyl]phenyl}-2,5,8,11,14,17-hexaoxanonadecane-19-amide] |  | 3.3 (≈ 4.78 µM)
12 | CNC(=O)c1ccccc1Sc1ccc2c(C#Cc3cccc(NCCOCCOCCOC)c3)n[nH]c2c1 [Compound 25, 2-[(3-{[3-({2-[2-(2-methoxyethoxy)ethoxy]ethyl}amino)phenyl]ethynyl}-1H-indazol-6-yl)thio]-N-methylbenzamide] | 10 | 
13 | CNC(=O)c1ccccc1Sc1ccc2c(C#Cc3ccc(NCCOCCOCCOCCOC)cc3)n[nH]c2c1 [Compound 28, 2-{[3-({4-[(2,5,8,11-tetraoxatridecane-13-yl)amino]phenyl}ethynyl)-1H-indazol-6-yl]thio}-N-methylbenzamide] |  | 0.17 (≈ 0.289 µM)
14 | CNC(=O)c1ccccc1Sc1ccc2c(C#Cc3ccc(NCCOCCOCCOCCOCCOC)cc3)n[nH]c2c1 [Compound 29, 2-{[3-({4-[(2,5,8,11,14-pentaoxahexadecane-16-yl)amino]phenyl}ethynyl)-1H-indazol-6-yl]thio}-N-methylbenzamide] |  | 0.89 (≈ 1.41 µM)
15 | CNC(=O)c1ccccc1Sc1ccc2c(C#Cc3cncc(NC(=O)NCCOCCOCCOC)c3)n[nH]c2c1 [Compound 30, 2-[(3-{[5-(3-{2-[2-(2-methoxyethoxy)ethoxy]ethyl}ureido)pyridine-3-yl]ethynyl}-1H-indazol-6-yl)thio]-N-methylbenzamide] |  | 0.58 (≈ 0.985 µM)
16 | CNC(=O)c1ccccc1Sc1ccc2c(C#Cc3cncc(NC(=O)NCCOCCOCCOCCOCCOC)c3)n[nH]c2c1 [Compound 31, 2-{[3-({5-[3-(2,5,8,11,14-pentaoxahexadecane-16-yl)ureido]pyridine-3-yl}ethynyl)-1H-indazol-6-yl]thio}-N-methylbenzamide] |  | 9.9 (≈ 14.6 µM)
17 | CNC(=O)c1ccccc1Sc1ccc2c(C#Cc3ccc(NC(=O)NCCOCCOCCOC)nc3)n[nH]c2c1 [Compound 32, 2-[(3-{[6-(3-{2-[2-(2-methoxyethoxy)ethoxy]ethyl}ureido)pyridine-3-yl]ethynyl}-1H-indazol-6-yl)thio]-N-methylbenzamide] | 3.8 | 
18 | CNC(=O)c1ccccc1Sc1ccc2c(C#Cc3ccc(NC(=O)NCCOCCOCCOCCOCCOC)nc3)n[nH]c2c1 [Compound 34, 2-{[3-({6-[3-(2,5,8,11,14-pentaoxahexadecane-16-yl)ureido]pyridine-3-yl}ethynyl)-1H-indazol-6-yl]thio}-N-methylbenzamide] |  | 2.6 (≈ 3.84 µM)
19 | CNC(=O)c1ccccc1Sc1ccc2c(C#Cc3ccc(NC(=O)NCCOCCOCCOC)cn3)n[nH]c2c1 [Compound 35, 2-[(3-{[5-(3-{2-[2-(2-methoxyethoxy)ethoxy]ethyl}ureido)pyridine-2-yl]ethynyl}-1H-indazol-6-yl)thio]-N-methylbenzamide] | 3.2 | 4.4 (≈ 7.47 µM)
20 | CNC(=O)c1ccccc1Sc1ccc2c(C#Cc3ccc(NC(=O)NCCOCCOCCOCCOC)cn3)n[nH]c2c1 [Compound 36, 2-{[3-({5-[3-(2,5,8,11-tetraoxatridecane-13-yl)ureido]pyridine-2-yl}ethynyl)-1H-indazol-6-yl]thio}-N-methylbenzamide] |  | 16 (≈ 25.3 µM)
21 | CNC(=O)c1ccccc1Sc1ccc2c(C#Cc3ccc(NC(=O)NCCOCCOCCOCCOCCOC)cn3)n[nH]c2c1 [Compound 37, 2-{[3-({5-[3-(2,5,8,11,14-pentaoxahexadecane-16-yl)ureido]pyridine-2-yl}ethynyl)-1H-indazol-6-yl]thio}-N-methylbenzamide] |  | 29 (≈ 42.8 µM)
22 | CNC(=O)c1ccccc1Sc1ccc2c(C#Cc3ccc(NC(=O)COCCOCCOCCOC)nc3)n[nH]c2c1 [Compound 38, N-{5-[(6-{[2-(methylcarbamoyl)phenyl]thio}-1H-indazol-3-yl)ethynyl]pyridine-2-yl}-2,5,8,11-tetraoxatridecane-13-amide] | 3.5 | 
23 | CNC(=O)c1ccccc1Sc1ccc2c(C#Cc3ccc(NC(=O)COCCOCCOCCOC)cn3)n[nH]c2c1 [Compound 41] |  | 0.52 (≈ 0.861 µM)
24 | CNC(=O)c1ccccc1Sc1ccc2c(C#Cc3ccc(NC(=O)NCCOCCOCCO)cc3)n[nH]c2c1 [Compound 42, 2-[(3-{[4-(3-{2-[2-(2-hydroxyethoxy)ethoxy]ethyl}ureido)phenyl]ethynyl}-1H-indazol-6-yl)thio]-N-methylbenzamide] | 1.6 | 3.1 (≈ 5.4 µM)
25 | CNC(=O)c1ccccc1Sc1ccc2c(C#Cc3ccc(NC(=O)NCCOCCOCCN)cc3)n[nH]c2c1 [Compound 43, 2-[(3-{[4-(3-{2-[2-(2-aminoethoxy)ethoxy]ethyl}ureido)phenyl]ethynyl}-1H-indazol-6-yl)thio]-N-methylbenzamide] | 4 | 32 (≈ 55.9 µM)
26 | CNC(=O)c1ccccc1Sc1ccc2c(C#Cc3ccc(NC(=O)NCCOCCOCCN(C)C)cc3)n[nH]c2c1 [Compound 44, 2-{[3-({4-[3-(2-{2-[2-(dimethylamino)ethoxy]ethoxy}ethyl)ureido]phenyl}ethynyl)-1H-indazol-6-yl]thio}-N-methylbenzamide] | 3 | 7.6 (≈ 12.7 µM)
27 | CNC(=O)c1ccccc1Sc1ccc2c(C#Cc3ccc(NC(=O)NCCOCCOCCNC(C)=O)cc3)n[nH]c2c1 [Compound 45, 2-[(3-{[4-(3-{2-[2-(2-acetamideethoxy)ethoxy]ethyl}ureido)phenyl]ethynyl}-1H-indazol-6-yl)thio]-N-methylbenzamide] | 2.5 | 0.56 (≈ 0.911 µM)
28 | CNC(=O)c1ccccc1Sc1ccc2c(C#Cc3ccc(NC(=O)NCCOCCOCCN4CCOCC4)cc3)n[nH]c2c1 [Compound 46, N-methyl-2-[(3-{[4-(3-{2-[2-(2-morpholinoethoxy)ethoxy]ethyl}ureido)phenyl]ethynyl}-1H-indazol-6-yl)thio]benzamide] | 3.2 | 1.4 (≈ 2.18 µM)

— patent publication US9617222B1, “Alkynyl indazole derivative and use thereof” (SENJU PHARMACEUTICAL CO., LTD., priority 2014, dated 2017)
